# Measured values published in PubChem BioAssay (NCI).
# Several values for one entry are separate records, joined by “and”; a condition that tells them apart may be missing. Equal entries are not always repeated.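 Cells were grown in 96-well plates and exposed to each compound for 48 hours at five concentrations; endpoints were interpolated linearly between bracketing concentrations, or set to the highest concentration if not reached. Here, GI50 denotes the concentration required for 50% inhibition of growth. TGI marks complete inhibition of growth.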
# Tests used:
# Assay in all cases: inhibition of tumour cell growth, NCI panel, 48 h
# [1] = system: MCF7 breast
# [2] = system: HCC-2998 colon
# [3] = system: HS 578T breast
# [4] = system: HOP-62 NSCLC
# [5] = system: M14 melanoma
# [6] = system: NCI/ADR-RES ovarian
# [7] = system: TK-10 renal
# [8] = system: BT-549 breast
# [9] = system: SK-MEL-5 melanoma
# [10] = system: LOX IMVI melanoma
# [11] = system: NCI-H460 lung
# [12] = system: NCI-H522 lung
# [13] = system: MALME-3M melanoma
# [14] = system: OVCAR-5 ovarian
# [15] = system: NCI-H23 lung
# [16] = system: DU-145 prostate
# [17] = system: KM12 colon
# [18] = system: MDA-MB-231 breast
# [19] = system: PC-3 prostate
# [20] = system: RXF 393 renal
# [21] = system: UACC-257 melanoma
# [22] = system: NCI-H226 lung
# [23] = system: SK-OV-3 ovarian
# [24] = system: ACHN renal
# [25] = system: SF-539 CNS
# [26] = system: UACC-62 melanoma
# [27] = system: OVCAR-3 ovarian
# [28] = system: SNB-19 CNS
# [29] = system: IGROV1 ovarian
# [30] = system: HCT-116 colon
# [31] = system: SF-268 CNS
# [32] = system: CAKI-1 renal
# [33] = system: MDA-N
# [34] = system: EKVX NSCLC
# [35] = system: COLO 205 colon
# [36] = system: HCT-15 colon
# [37] = system: SF-295 CNS
# [38] = system: UO-31 renal
# [39] = system: 786-0 renal
# [40] = system: A549 NSCLC
# [41] = system: T-47D breast
# [42] = system: SN12C renal
# [43] = system: HL-60(TB) leukemia
# [44] = system: MDA-MB-435
# [45] = system: MOLT-4 leukemia
# [46] = system: SR leukemia
# [47] = system: SW-620 colon
# [48] = system: A498 renal
# [49] = system: U251 CNS
# [50] = system: OVCAR-4 ovarian
# [51] = system: K-562 leukemia
# [52] = system: SNB-75 CNS
# [53] = system: OVCAR-8 ovarian
# [54] = system: HT29 colon
# [55] = system: SK-MEL-2 melanoma
# [56] = system: SK-MEL-28 melanoma
# [57] = system: RPMI-8226 leukemia
# [58] = system: CCRF-CEM leukemia
# [59] = system: HOP-92 NSCLC
smiles,measurement,setting,value
NC(N)=NC(P(=O)(O)O)P(=O)(O)O,TGI,[1],> 100 µM
same,TGI,[2],> 100 µM
same,TGI,[3],> 100 µM
same,TGI,[4],> 100 µM
same,TGI,[5],> 100 µM
same,TGI,[6],> 100 µM
same,TGI,[7],> 100 µM
same,TGI,[8],> 100 µM
same,TGI,[9],> 100 µM
same,TGI,[10],> 100 µM
same,TGI,[11],> 100 µM
same,TGI,[12],> 100 µM
same,TGI,[13],> 100 µM
same,TGI,[14],> 100 µM
same,TGI,[15],> 100 µM
same,TGI,[16],> 100 µM
same,TGI,[17],> 100 µM
same,TGI,[18],> 100 µM
same,TGI,[19],> 100 µM
same,TGI,[20],> 100 µM
same,TGI,[21],> 100 µM
same,TGI,[22],> 100 µM
same,TGI,[23],> 100 µM
same,TGI,[24],> 100 µM
same,TGI,[25],> 100 µM
same,TGI,[26],> 100 µM
same,TGI,[27],> 100 µM
same,TGI,[28],> 100 µM
same,TGI,[29],> 100 µM
same,TGI,[30],> 100 µM
same,TGI,[31],> 100 µM
same,TGI,[32],> 100 µM
same,TGI,[33],> 100 µM
same,TGI,[34],> 100 µM
same,TGI,[35],> 100 µM
same,TGI,[36],> 100 µM
same,TGI,[37],> 100 µM
same,TGI,[38],> 100 µM
same,TGI,[39],> 100 µM
same,TGI,[40],> 100 µM
Cc1ccc(/C(=C\C(=O)C(=O)NC23CC4CC(CC(C4)C2)C3)Sc2ccccc2)cc1,TGI,[1],> 10 µM
same,TGI,[2],> 10 µM
same,TGI,[3],> 10 µM
same,TGI,[4],> 10 µM
same,TGI,[41],> 10 µM
same,TGI,[42],> 10 µM
same,TGI,[5],> 10 µM
same,TGI,[43],> 10 µM
same,TGI,[6],> 10 µM
same,TGI,[7],> 10 µM
same,TGI,[44],> 10 µM
same,TGI,[9],> 10 µM
same,TGI,[45],> 10 µM
same,TGI,[10],> 10 µM
same,TGI,[11],> 10 µM
same,TGI,[12],> 10 µM
same,TGI,[13],> 10 µM
same,TGI,[14],> 10 µM
same,TGI,[46],> 10 µM
same,TGI,[15],> 10 µM
same,TGI,[16],> 10 µM
same,TGI,[17],> 10 µM
same,TGI,[18],> 10 µM
same,TGI,[47],> 10 µM
same,TGI,[19],> 10 µM
same,TGI,[48],> 10 µM
same,TGI,[20],> 10 µM
same,TGI,[21],> 10 µM
same,TGI,[22],> 10 µM
same,TGI,[49],> 10 µM
same,TGI,[23],> 10 µM
same,TGI,[50],> 10 µM
same,TGI,[51],> 10 µM
same,TGI,[24],> 10 µM
same,TGI,[25],> 10 µM
same,TGI,[27],> 10 µM
same,TGI,[29],> 10 µM
same,TGI,[31],> 10 µM
same,TGI,[32],> 10 µM
same,TGI,[33],> 10 µM
same,TGI,[52],> 10 µM
same,TGI,[34],> 10 µM
same,TGI,[53],> 10 µM
same,TGI,[35],> 10 µM
same,TGI,[54],> 10 µM
same,TGI,[55],> 10 µM
same,TGI,[36],> 10 µM
same,TGI,[37],> 10 µM
same,TGI,[38],> 10 µM
same,TGI,[56],> 10 µM
same,TGI,[57],> 10 µM
same,TGI,[39],> 10 µM
same,TGI,[58],> 10 µM
C/C(=N\N=C(\[Se])N1CCN(c2ccccn2)CC1)c1ccccn1,GI50,[1],0.00278 µM
same,TGI,[1],14.3 µM
same,TGI,[2],23.3 µM
same,TGI,[3],68.2 µM
same,GI50,[42],0.375 µM
same,TGI,[42],21.3 µM
same,GI50,[5],0.0254 µM
same,TGI,[5],16.7 µM
same,GI50,[43],0.00236 µM
same,TGI,[6],18.6 µM
same,TGI,[7],20.6 µM
same,GI50,[44],0.0967 µM
same,TGI,[44],20.3 µM
same,TGI,[8],25 µM
same,GI50,[9],0.0401 µM
same,TGI,[9],3.95 µM
same,GI50,[45],0.00298 µM
same,GI50,[10],0.00443 µM
same,TGI,[10],17.6 µM
same,TGI,[11],16 µM
same,GI50,[12],0.0429 µM
same,TGI,[12],0.761 µM and 3.2 µM
same,GI50,[13],0.159 µM
same,TGI,[13],3.78 µM
same,GI50,[14],0.00643 µM
same,TGI,[14],21.8 µM
same,GI50,[46],4.17 µM
same,TGI,[46],54.4 µM
same,GI50,[15],0.023 µM
same,TGI,[15],21.8 µM
same,GI50,[16],0.586 µM
same,TGI,[16],20.1 µM
same,GI50,[17],0.239 µM
same,TGI,[17],18.5 µM
same,TGI,[18],17.5 µM
same,TGI,[47],12.4 µM
same,GI50,[19],0.334 µM
same,TGI,[19],14.2 µM
same,TGI,[48],18.1 µM
same,TGI,[20],1.83 µM
same,GI50,[21],0.0047 µM
same,TGI,[21],12.8 µM
same,TGI,[22],14.3 µM
same,TGI,[49],16.7 µM
same,TGI,[23],9.82 µM
same,GI50,[50],0.00554 µM
same,TGI,[50],3.31 µM
same,GI50,[51],0.00114 µM
same,GI50,[24],0.00847 µM
same,TGI,[24],16.9 µM
same,GI50,[25],0.407 µM
same,TGI,[25],12.2 µM
same,GI50,[28],0.13 µM
same,TGI,[28],18.6 µM
same,GI50,[30],0.00589 µM
same,TGI,[30],6.27 µM
same,TGI,[31],19.5 µM
same,GI50,[32],0.0408 µM
same,TGI,[32],21.3 µM
same,GI50,[33],0.424 µM
same,TGI,[33],21 µM
same,GI50,[59],0.0044 µM
same,TGI,[59],13.2 µM
same,TGI,[52],17.5 µM
same,GI50,[34],0.0937 µM and 0.559 µM
same,TGI,[34],9.7 µM
same,GI50,[53],0.000541 µM
same,TGI,[53],20.6 µM
same,GI50,[35],0.00449 µM
same,TGI,[35],0.0358 µM
same,GI50,[54],0.00203 µM
same,TGI,[54],14.2 µM
same,TGI,[55],2.36 µM
same,GI50,[36],0.0118 µM
same,TGI,[36],17.3 µM
same,GI50,[37],0.0204 µM
same,TGI,[37],16.7 µM
same,GI50,[38],0.138 µM
same,TGI,[38],> 40 µM
same,TGI,[56],22.7 µM
same,GI50,[57],0.00477 µM
same,TGI,[57],0.486 µM
same,GI50,[39],0.198 µM
same,TGI,[39],19.8 µM
same,GI50,[40],0.0476 µM
same,TGI,[40],21.7 µM
O=c1ssc(Cl)c1Nc1c(Cl)ssc1=O,TGI,[1],> 63 µM
same,TGI,[2],41.3 µM
same,TGI,[3],> 100 µM
same,TGI,[4],42.4 µM
same,TGI,[41],29.8 µM
same,TGI,[42],37.9 µM
same,TGI,[5],39.8 µM
same,TGI,[43],35.1 µM
same,TGI,[6],71.4 µM
same,TGI,[7],33.3 µM
same,TGI,[44],37.7 µM
same,TGI,[8],33.1 µM
same,TGI,[9],32 µM
same,TGI,[45],7.29 µM
same,TGI,[10],31.2 µM
same,TGI,[11],34.6 µM
same,TGI,[12],60.5 µM
same,TGI,[13],37.7 µM
same,TGI,[14],37.3 µM
same,TGI,[46],15 µM
same,TGI,[15],38.8 µM
same,TGI,[16],32.3 µM
same,TGI,[17],32.3 µM
same,TGI,[18],41.1 µM
same,TGI,[47],> 54.4 µM
same,TGI,[19],37.9 µM
same,TGI,[48],31.7 µM
same,TGI,[20],28.3 µM
same,TGI,[21],33.4 µM
same,TGI,[22],79 µM
same,TGI,[49],36.8 µM
same,TGI,[23],59 µM
same,TGI,[50],35.8 µM
same,TGI,[51],15.3 µM
same,TGI,[24],> 54.3 µM
same,TGI,[25],59.3 µM
same,TGI,[26],> 55 µM
same,TGI,[27],39.4 µM
same,TGI,[28],69.1 µM
same,TGI,[29],34.2 µM
same,TGI,[30],33.9 µM
same,TGI,[31],51.8 µM
same,TGI,[32],32 µM
same,TGI,[59],41.6 µM
same,TGI,[52],46.5 µM
same,TGI,[34],41.4 µM
same,TGI,[53],51.3 µM
same,TGI,[35],31.5 µM
same,TGI,[54],47.5 µM
same,TGI,[55],37.6 µM
same,TGI,[36],39.6 µM
same,TGI,[37],> 100 µM
same,TGI,[38],32.4 µM
same,TGI,[56],> 61.8 µM
same,TGI,[57],29.9 µM
same,TGI,[39],38.2 µM
same,TGI,[40],49.8 µM
same,TGI,[58],> 23.5 µM
